Our source for the mass density and Normal melting temperature values is the NIST ThermoML archive (doi:10.1016/j.tca.2010.03.027).

The conditions of series [1]: Crystal; for Normal melting temperature: DTA.
Series [2] can be described thus: xn = mol fraction of the nth substance listed. The following applies: 293 K, 101 kPa, Crystal, X-ray diffraction.

± gives the expanded uncertainty stated by the source.

For orientation: mass density means mass per unit of volume. As for `[Br-].[Br-].[Ca+2]` [calcium bromide], the mass density in series [1] (293 K, 101.3 kPa, X-ray diffraction) came out at 5060 ± 2 kg/m3. In series [1], the Normal melting temperature amounted to 738 ± 1 °C.

With `[Br-].[Br-].[Ca+2]` [calcium bromide] + [Ca+2].[Cl-].[Cl-], the mass density in series [2] (x1 = 0.15) was determined as 3536 ± 2 kg/m3; in series [2] (x1 = 0.3), 3836 ± 2 kg/m3; in series [2] (x1 = 0.45), 4112 ± 2 kg/m3; in series [2] (x1 = 0.6), 4371 ± 2 kg/m3; in series [2] (x1 = 0.75) it was 4628 ± 2 kg/m3; in series [2] (x1 = 0.9), 4861 ± 2 kg/m3. The mass density in series [2] (x1 = 1) is listed as 5060 ± 2 kg/m3.

Regarding `[Ca+2].[Cl-].[Cl-]` [calcium chloride], in series [1], the Normal melting temperature turned out to be 770 ± 1 °C.
